{"source": "patent US12144910B2", "about": "“Methods of coating antimicrobial peptides on the biomaterial and the biomaterial coated thereby” (priority 2019, dated 2024)", "key": {"S. aureus [1]": {"system": "S. aureus", "description": "Minimum inhibitory concentration (MIC) and minimum bactericidal concentration (MBC). […] The suspended AMPs were then loaded into wells of 96-well microplates and incubated at 37° C. overnight with gentle agitation at 100 rpm. The absorbance was measured by SpectraMax 190 microplate reader at 600 nm. The remaining cfu in the mixture was counted after plating on agar plate. Minimum inhibitory concentration (MIC) was defined as the lowest AMP concentration to keep the solution with the same absorbance as that of culture medium without bacteria. […] Alternatively, the MIC of coated AMPs was also determined. […] The free form AMPs as well as surfactant were dissolved in 200 μl sterile media (cell culture medium or human urine) and used as a control for quantitation. The potency of antimicrobial activity was expressed as the dilution folds to reach the MIC, in which no bacteria grow in the medium. At least three independent experiments were performed to determine the value."}, "[2]": {"format": "physicochemical", "set-up": "time stable in human urine: unit not given here", "settings": "for time stable in human urine: coated onto the microplate by SDS, examined under the microscope; for time stable in urine: single AMP coated by SDS (two-step) on polystyrene, SDS-PAGE; for stability in urine: one-day incubation; for time stable in 10% FBS: single AMP coated by SDBS on polystyrene"}, "S. aureus [3]": {"system": "S. aureus", "assay": "Inhibition zone assay on agar plate", "format": "cell-based, Staphylococcus aureus", "settings": "free AMP, 2 μl dotted on agar plate", "method": "(§1) Inhibition zone. Bacteria were cultured in Luria-Bertani broth and plated on Luria-Bertani agar for E. coli (ATCC 23502) and Pseudomonas aeruginosa (ATCC 27853) at 37° C. Staphylococcus aureus (ATCC 6538P) was cultured and plated in/on tryptic soy broth/agar. Candida albicans (ATCC 14053) were cultured in/on YM broth/agar at 30° C. Five ml of low melting agar (1%) mixed with 100 μl of overnight-cultured bacteria was spread on top of 1% regular agar plate. Two μl of antimicrobial peptides at various concentrations were dotted on the top layer of microbe-containing agar plates and incubated overnight for the development of inhibition zone."}, "[4]": {"system": "Human bladder carcinoma cell line (NTUB1)", "assay": "Cytotoxicity assay (WST-1)", "settings": "for Potency (x) Cytotoxicity to NTUB1 IC50: dilution fold, free form, 1× = 8 μg AMP, 16 μg PXB and/or 25 μg SDS in 200 μl", "description": "NTUB1 cells were maintained at 37° C. in a humidified incubator under 5% CO2 atmosphere in RPMI1640 containing 10% FBS, 100 U/ml penicillin and 100 μg/ml streptomycin. The NTUB1 cells were seeded in the respective wells of a 96-well plate at a density of 1.5×10^4 cells/1000 for 24 hr. The cells were further incubated in 2000 free antimicrobial/surfactant or components released from silicone disc after overnight incubation. After 20 hr incubation, 900 of fresh culture medium and 100 of WST-1 agent (Roche, Basel, Switzerland) were added to the drained wells and incubated for two 2 hr before measuring the absorbance by SpectraMax 190 microplate reader at 450 nm. Percent of cytotoxicity was determined using the following formula: % cytotoxicity=[(A450sample−A450positive control)/(A450negative control−A450positive control)]. Positive control was NTUB1 cells only, whereas negative control was medium without cells."}, "E. coli ATCC 23502": {"system": "E. coli ATCC 23502", "assay": "Potency of antimicrobial activity as dilution folds to reach the MIC", "format": "cell-based", "settings": "for Potency (x) MIC to E. coli, Serum / Potency (x) MIC to E. coli, Urine: dilution fold, free form, 1× = 8 μg AMP; for Potency (x) MIC to E. coli, Serum: 16 μg PXB and/or 25 μg SDS in 200 μl serum; for Potency (x) MIC to E. coli, Urine: 16 μg PXB and/or 25 μg SDS in 200 μl urine", "method": "Minimum inhibitory concentration (MIC) and minimum bactericidal concentration (MBC). […] Alternatively, the MIC of coated AMPs was also determined. […] The urine and serum were changed daily. Two μl of the incubation urine or serum being replaced (containing released/free SAAP159+PXB) or its dilutions were dotted onto the top layer of the microbe-containing agar plates and incubated at 37° C. overnight, following which the assessment of formation of growth inhibition zone was carried out. Defined amounts of mixed antimicrobials were used as a standard for the quantitation of the released antimicrobials. The amount of antimicrobial mixture which was able to form visible inhibition zone on the agar plate is defined as one unit of antimicrobial activity. […] The absorbance at 600 nm was then determined by SpectraMax 190 microplate reader. Minimal inhibitory concentration (MIC), which is defined as the concentration of (diluted) sample serum or urine which is able to keep the absorbance of the bacteria-containing media no different to that of media only, was determined. The potency of antimicrobial activity, which is defined as the dilution fold of antimicrobial-containing urine or serum that achieves MIC, was also determined."}, "mouse red blood cells": {"system": "mouse red blood cells", "assay": "Hemolytic assay", "settings": "dilution fold; free form, 1× = 8 μg AMP, 16 μg PXB and/or 25 μg SDS in 200 μl", "description": "The blood cells were pelleted and rinsed three times with 10% FBS in RPMI1640, and re-suspended in the same buffer. The erythrocytes (1.5×10^7 cells) were then added to the solution containing free dual AMP/surfactant or overnight released components from silicone discs in 200 μl and incubation at 37° C. for one hr. The supernatants (150 μl) after centrifugation were transferred to 96-well plate for the measurement of the absorbance of released hemoglobin by SpectraMax 190 microplate reader (Molecular Devices, CA, USA) at 414 nm. Percent hemolysis was calculated using the following formula: % hemolysis=[(A414sample−A414medium)/(A4140.1% Triton-X 100−A414medium)]. Zero and 100% hemolysis were determined in medium and 0.1% Triton-X 100, respectively."}, "P. aeruginosa 27853": {"system": "P. aeruginosa 27853", "assay": "Inhibition zone assay on agar plate", "format": "cell-based, Pseudomonas aeruginosa", "settings": "free AMP, 2 μl dotted on agar plate", "method": "as §1"}, "[5]": {"settings": "free AMP, LB, 3.5 × 10^5 cfu/ml"}}, "note": "Where two headings read alike, the source gives them in different places. Non-standard residues stand in square brackets, D forms with d. No end group written: not given here."}
{"molecule": "LKRLYKRVFRLLKRYYRQLRRPVR-OH [SAAP159]", "values": [{"measurement": "MBC", "setting": "S. aureus [1]", "value": ">512", "unit": "µg/mL"}, {"measurement": "MIC", "setting": "S. aureus [1]", "value": 512, "unit": "µg/mL"}, {"measurement": "time stable in human urine", "setting": "[2]", "value": "at least three"}, {"measurement": "time stable in urine", "setting": "[2]", "value": 12, "unit": "days"}, {"measurement": "MBC", "setting": "E. coli 23502; 23502", "value": 64, "unit": "µg/mL"}, {"measurement": "MIC", "setting": "E. coli 23502; 23502", "value": 64, "unit": "µg/mL"}]}
{"molecule": "H-FIHHIIGGLFSAGKAIHRLIRRRRR-OH [TP4, antimicrobial peptide Piscidins 4]", "values": [{"measurement": "stability in urine", "setting": "[2]; coated by SDBS on microplates", "value": "stable in urine"}, {"measurement": "stability in urine", "setting": "[2]; coated by SOS or SDSn on microplates", "value": "not those coated by SOS or SDSn"}, {"measurement": "time stable in human urine", "setting": "[2]", "value": "at least three"}]}
{"molecule": "KWKLFKKIGIGAVLKVLKKG-NH2 [T18,19K]", "values": [{"measurement": "MBC", "setting": "S. aureus [1]; free AMP, TSB, 4 × 10^5 cfu/ml", "value": ">512", "unit": "µg/mL"}, {"measurement": "MIC", "setting": "S. aureus [1]; free AMP, TSB, 4 × 10^5 cfu/ml", "value": ">512", "unit": "µg/mL"}, {"measurement": "time stable in urine", "setting": "[2]", "value": 6, "unit": "days"}, {"measurement": "time stable in serum", "setting": "[2]; single AMP coated by SDS on polystyrene", "value": "not stable"}, {"measurement": "MBC", "setting": "E. coli 23502; [5]", "value": 64, "unit": "µg/mL"}, {"measurement": "MIC", "setting": "E. coli 23502; [5]", "value": 64, "unit": "µg/mL"}]}
{"molecule": "CC[C@H](C)[C@H](NC(=O)[C@H](CCCNC(=N)N)NC(=O)[C@H](CCCNC(=N)N)NC(=O)[C@H](CC(C)C)NC(=O)[C@H](Cc1c[nH]c2ccccc12)NC(=O)[C@H](C)NC(=O)[C@H](CCCCN)NC(=O)[C@@H](NC(=O)[C@H](CCCNC(=N)N)NC(=O)[C@H](CCCNC(=N)N)NC(=O)[C@H](CC(C)C)NC(=O)[C@@H](N)Cc1c[nH]c2ccccc12)[C@@H](C)CC)C(=O)N[C@@H](CCCCN)C(=O)N[C@@H](C)C(=O)O", "note": "[RRIKA]", "values": [{"measurement": "MBC", "setting": "S. aureus [1]", "value": 128, "unit": "µg/mL"}, {"measurement": "MIC", "setting": "S. aureus [1]", "value": 64, "unit": "µg/mL"}, {"measurement": "MBC", "setting": "E. coli 23502; 23502", "value": 128, "unit": "µg/mL"}, {"measurement": "MIC", "setting": "E. coli 23502; 23502", "value": 128, "unit": "µg/mL"}]}
{"molecule": "H-RRLIRLILRLLR-NH2 [RR12]", "values": [{"measurement": "antimicrobial activity by inhibition zone (in words)", "setting": "S. aureus [3]", "value": "very active"}, {"measurement": "MBC", "setting": "S. aureus [1]", "value": 4, "unit": "µg/mL"}, {"measurement": "MIC", "setting": "S. aureus [1]", "value": 4, "unit": "µg/mL"}, {"measurement": "time stable in 10% FBS", "setting": "[2]", "value": "two"}, {"measurement": "MBC", "setting": "E. coli 23502; 23502", "value": 4, "unit": "µg/mL"}, {"measurement": "MIC", "setting": "E. coli 23502; 23502", "value": 4, "unit": "µg/mL"}]}
{"molecule": "RGLRRLGRKIVHVVKKYLPTVLRIIRIA-NH2 [SMAP28-3]", "values": [{"measurement": "time stable in human urine", "setting": "[2]", "value": "at least three"}]}
{"molecule": "GRFKRFRKKFKKLFKKLSPVIPLLHLG (G[dR][dF][dK][dR][dF][dR][dK][dK][dF][dK][dK][dL][dF][dK][dK][dL][dS][dP][dV][dI][dP][dL][dL][dH][dL]G) [L-BMAP27]", "values": [{"measurement": "time stable in human urine", "setting": "[2]", "value": "at least three"}]}
{"molecule": "GRFKRFRKKFKKLFKKLSPVIPLLHLG-OH (All in D form) (G[dR][dF][dK][dR][dF][dR][dK][dK][dF][dK][dK][dL][dF][dK][dK][dL][dS][dP][dV][dI][dP][dL][dL][dH][dL]G-OH) [D-BMAP27]", "values": [{"measurement": "time stable in human urine", "setting": "[2]", "value": "at least three"}]}
{"molecule": "H-FIHHIIGGLFSAGKAIHRLIRRRRR-OH [TP4-A12,15I]", "values": [{"measurement": "time stable in 10% FBS", "setting": "[2]", "value": "two"}]}
{"molecule": "Polymyxin B [PXB, reference compound]", "values": [{"measurement": "Potency (x) Cytotoxicity to NTUB1 IC50", "setting": "[4]", "value": "<1", "unit": "x"}, {"measurement": "Potency (x) MIC to E. coli, Serum", "setting": "E. coli ATCC 23502", "value": 512, "unit": "x"}, {"measurement": "Potency (x) MIC to E. coli, Urine", "setting": "E. coli ATCC 23502", "value": 128, "unit": "x"}, {"measurement": "Potency (x) Hemolysis of RBC HC50", "setting": "mouse red blood cells", "value": "<1", "unit": "x"}]}
{"molecule": "RFRRLRKKWRKRLKKI-NH2 [T9W]", "values": [{"measurement": "antimicrobial activity by inhibition zone (in words)", "setting": "P. aeruginosa 27853", "value": "preferentially killed"}, {"measurement": "MBC", "setting": "S. aureus [1]", "value": ">512", "unit": "µg/mL"}, {"measurement": "MIC", "setting": "S. aureus [1]", "value": ">512", "unit": "µg/mL"}, {"measurement": "time stable in urine", "setting": "[2]", "value": 6, "unit": "days"}, {"measurement": "MBC", "setting": "E. coli 23502; 23502", "value": ">512", "unit": "µg/mL"}, {"measurement": "MIC", "setting": "E. coli 23502; 23502", "value": ">512", "unit": "µg/mL"}]}
{"molecule": "CCCCCCCCCCCCOS(=O)(=O)[O-].[Na+]", "note": "[SDS, sodium dodecyl sulfate]", "values": [{"measurement": "cytotoxicity toward NTUB1 cells", "setting": "[4]; 25 μg in 200 μl", "value": 99, "unit": "%"}, {"measurement": "Potency (x) Cytotoxicity to NTUB1 IC50", "setting": "[4]", "value": "1-2 x"}, {"measurement": "cytotoxicity toward NTUB1 cells", "setting": "[4]; half of the total amount (of 25 μg in 200 μl)", "value": 35, "unit": "%"}, {"measurement": "cytotoxicity toward human bladder cells (NTUB1) (in words)", "setting": "[4]; maximal amount that may be coated and released (SDS 14 μg; AMP pairs 12 μg each) in 200 μl", "value": "low cytotoxicity"}, {"measurement": "Potency (x) MIC to E. coli, Serum", "setting": "E. coli ATCC 23502", "value": "<1", "unit": "x"}, {"measurement": "Potency (x) MIC to E. coli, Urine", "setting": "E. coli ATCC 23502", "value": "<1", "unit": "x"}, {"measurement": "bactericidal activity against E. coli 23502 in urine or in 10% FBS", "setting": "E. coli ATCC 23502; surfactant alone up to maximal amount (14 μg SDS, 25 μg SDBS) in 200 μl", "value": "did not exert bactericidal activity"}, {"measurement": "Potency (x) Hemolysis of RBC HC50", "setting": "mouse red blood cells", "value": "1-2 x"}]}
{"molecule": "RGLRRLGRKIVHVVKKYLPTVLRIIRRL-NH2 [SMAP28-3 + 2]", "values": [{"measurement": "MBC", "setting": "S. aureus [1]", "value": 32, "unit": "µg/mL"}, {"measurement": "MIC", "setting": "S. aureus [1]", "value": 32, "unit": "µg/mL"}, {"measurement": "time stable in human urine", "setting": "[2]", "value": "at least three"}, {"measurement": "time stable in 10% FBS", "setting": "[2]", "value": "one"}, {"measurement": "MBC", "setting": "E. coli 23502; 23502", "value": 8, "unit": "µg/mL"}, {"measurement": "MIC", "setting": "E. coli 23502; 23502", "value": 4, "unit": "µg/mL"}]}
